From ChEMBL document CHEMBL1201862, “PubChem BioAssay data set” (2004)
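Growth conditions: 96-well plates. Treatment: test compound, 48 hours, 5 concentrations. Analysis: linear interpolation between bracketing concentrations; unreached endpoints set to highest concentration. GI50 is the concentration that inhibits growth by half.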 Activity calls are given as the source filed them. Cut-off read from the data, not from the text of the source: active = GI50 up to about 1.1 µM and inactive = higher.

Legend:
Assay in all cases: DTP human tumour cell line panel, 48 h
KM-20L2 = tested on: KM-20L2
M19-MEL = tested on: M19-MEL
HOP-18 = tested on: HOP-18
RXF 631 = tested on: RXF 631
DMS-273 = tested on: DMS-273
DLD-1 = tested on: DLD-1
DMS-114 = tested on: DMS-114
XF498 = tested on: XF498
SNB-78 = tested on: SNB-78

Row | SMILES | GI50 (KM-20L2) | GI50 (M19-MEL) | GI50 (HOP-18) | GI50 (RXF 631) | GI50 (DMS-273) | GI50 (DLD-1) | GI50 (DMS-114) | GI50 (XF498) | GI50 (SNB-78)
1 | O=C1OC(CC(=O)c2ccc(Cl)c(Cl)c2)C(Cl)=C1Cl (centres undefined) | > 100 µM (inactive) | > 100 µM (inactive) | > 100 µM (inactive) | > 100 µM (inactive) | > 100 µM (inactive) | > 100 µM (inactive) | 52.6 µM (inactive) | 64 µM (inactive) | –
2 | O=c1[nH]c(=O)n(C2OC(CO)C(O)C2O)cc1/N=N/NCc1ccccc1 (centres undefined) | > 100 µM (inactive) | > 100 µM (inactive) | > 100 µM (inactive) | > 100 µM (inactive) | > 71.6 µM (inactive) | > 60.1 µM (inactive) | > 66.5 µM (inactive) | > 100 µM (inactive) | > 100 µM (inactive)
3 | CCOC(OCC)(OCC)C(Br)CC (centres undefined) | 11.8 µM (inactive) | > 100 µM (inactive) | > 100 µM (inactive) | > 100 µM (inactive) | 19.1 µM (inactive) | 22 µM (inactive) | 12.5 µM (inactive) | > 100 µM (inactive) | > 100 µM (inactive)
4 | CCCCCCCC(=O)OCC1OC(n2cc(F)c(=O)[nH]c2=O)C(N)C(OC(=O)CCCCCCC)C1O (centres undefined) | 18.9 µM (inactive) | 20.2 µM (inactive) | – | – | 16.6 µM (inactive) | – | – | – | 20 µM (inactive)
5 | CCCNC(=O)c1cc2ccccc2cc1C(=O)OC | > 100 µM (inactive) | > 100 µM (inactive) | > 100 µM (inactive) | > 100 µM (inactive) | > 100 µM (inactive) | > 100 µM (inactive) | > 100 µM (inactive) | > 100 µM (inactive) | > 100 µM (inactive)
6 | CC(=O)OCc1ncccc1C(OC(C)=O)OC(C)=O | > 100 µM (inactive) | > 100 µM (inactive) | > 100 µM (inactive) | – | > 100 µM (inactive) | > 100 µM (inactive) | > 100 µM (inactive) | > 100 µM (inactive) | > 100 µM (inactive)
7 | [O-][S+](Cc1cc2c(cc1Br)OCO2)c1ccccc1 (centres undefined) | 71.4 µM (inactive) | 44.5 µM (inactive) | 41.3 µM (inactive) | – | 58.9 µM (inactive) | 24.2 µM (inactive) | 23.2 µM (inactive) | – | > 100 µM (inactive)
8 | CCN(CC)C1CC(O[C@H]2C[C@](O)(C(=O)CO)Cc3c(O)c4c(c(O)c32)C(=O)c2c(OC)cccc2C4=O)OC(C)C1O (some centres undefined) | 0.0733 µM (active) | 0.0484 µM (active) | – | 0.0655 µM (active) | < 0.0215 µM (active) | 0.0395 µM (active) | 0.0647 µM (active) | 0.0752 µM (active) | 0.08 µM (active)
9 | Cc1nc(-c2ccccc2)cc2c1c(=O)oc1ccccc12 | > 100 µM (inactive) | – | > 100 µM (inactive) | > 100 µM (inactive) | > 100 µM (inactive) | > 100 µM (inactive) | > 100 µM (inactive) | – | > 100 µM (inactive)
10 | CCN(CC)CCCC(C)Nc1c2cc(OC)cc(C)c2nc2c(C)c(Cl)ccc12 (centres undefined) | 1.86 µM (inactive) | 1.75 µM (inactive) | 1.56 µM (inactive) | 1.79 µM (inactive) | 1.71 µM (inactive) | 1.53 µM (inactive) | 1.93 µM (inactive) | – | 2.14 µM (inactive)
11 | COC(=O)C1=C(C)N(NC(=O)OC(C)(C)C)C(=O)C1=P(c1ccccc1)(c1ccccc1)c1ccccc1 | > 100 µM (inactive) | > 100 µM (inactive) | > 100 µM (inactive) | – | 35.2 µM (inactive) | > 100 µM (inactive) | > 100 µM (inactive) | > 100 µM (inactive) | > 100 µM (inactive)
12 | CC1CCC2[C@@H](C)COC3O[C@]4(C)CCC1C32OO4 (some centres undefined) | > 100 µM (inactive) | – | > 100 µM (inactive) | – | > 100 µM (inactive) | > 100 µM (inactive) | > 100 µM (inactive) | – | > 100 µM (inactive)
13 | COc1ccc2cc3n(c(=O)c2c1)CCc1c-3cc(OC)c(OC)c1OC | > 100 µM (inactive) | > 100 µM (inactive) | > 100 µM (inactive) | – | > 100 µM (inactive) | > 100 µM (inactive) | > 100 µM (inactive) | 50.7 µM (inactive) | > 100 µM (inactive)
